The values below come from US20230373985A1 (Origenis Gmbh, priority 2020, published 2023).

Structures are written as SMILES.

The target in the assay is T1, wt human TYK2, catalytic site (Homo sapiens, UniProt P29597).
T1 construct: wt human TYK2, catalytic site; purchased SignalChem
T1 sequence (P29597 897-1176 limits assumed): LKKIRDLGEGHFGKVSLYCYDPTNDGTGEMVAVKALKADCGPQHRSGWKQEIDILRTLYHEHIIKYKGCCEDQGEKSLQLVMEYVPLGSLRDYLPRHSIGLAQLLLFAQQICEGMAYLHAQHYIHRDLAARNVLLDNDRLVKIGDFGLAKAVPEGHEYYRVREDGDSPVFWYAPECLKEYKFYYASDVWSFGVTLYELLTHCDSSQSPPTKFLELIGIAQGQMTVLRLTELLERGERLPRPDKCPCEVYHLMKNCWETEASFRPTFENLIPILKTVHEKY
The assay is described as follows: HTRF KinEASE assay, TYK2. It is filed as biochemical. To be noted: 1 μM ATP; read-out: IC50, Activity Toward TYK2. As for the experimental part: Basic protocol for HTRF KinEASE assay (Cisbio/FRA) inhibitor studies involved two steps: • Enzymatic step: Addition of 4 μL of test compound in corresponding DMSO dilutions, 4 μL of kinase/substrate mixture, 2 μL of ATP into 384 well small volume plates. Incubation for at least 30 minutes at room temperature. • Detection step: Addition of 5 μL antibody and 5 μL streptavidin-XL665, read plate after 60 minutes. Data analysis of emission ratios according KinEASE assay protocol.
(§1) Kinase and assay components were adjusted to final concentrations according to kit protocol. For TYK2: 2 nM wt human TYK2, catalytic site (SignalChem/CAN), 1 μM HTRF KinEASE-TK Substrate-biotin, 1 μM ATP in 1× Kinase Buffer. For JAK1: 4 nM wt human JAK1, catalytic site (ThermoFisher/USA), 1 μM HTRF KinEASE-TK Substrate-biotin, 2.5 μM ATP in 1× Kinase Buffer. For JAK2: 1 nM wt human JAK2, catalytic site (SignalChem/CAN), 1 μM HTRF KinEASE-TK Substrate-biotin, 100 μM ATP in 1× Kinase Buffer.
as §1
For the compound `Cc1cc(Nc2cn(-c3c(Cl)cccc3Cl)nc2C(N)=O)cnc1-n1cccn1` [compound 346, 1-(2,6-dichlorophenyl)-4-((5-methyl-6-(1H-pyrazol-1-yl)pyridin-3-yl)amino)-1H-pyrazole-3-carboxamide], the IC50 (as a rule, the concentration at which inhibition is half-maximal) is 100 to 1000 nM.
The same measure for `CN(C)CCn1cc(C(F)(F)F)nc1-c1ccc(Nc2cn(-c3c(Cl)cccc3Cl)nc2C(N)=O)cc1` [compound 306, 1-(2,6-dichlorophenyl)-4-((4-(1-(2-(dimethylamino)ethyl)-4-(trifluoromethyl)-1H-imidazol-2-yl)phenyl)amino)-1H-pyrazole-3-carboxamide]: 10 to 100 nM.
Consider `CCCc1nc(C(F)(F)F)nn1-c1ccc(Nc2cn(-c3c(Cl)cccc3Cl)nc2C(N)=O)cc1` [compound 279, 1-(2,6-dichlorophenyl)-4-((4-(5-propyl-3-(trifluoromethyl)-1H-1,2,4-triazol-1-yl)phenyl)amino)-1H-pyrazole-3-carboxamide], for which the IC50 lay within 100 to 1000 nM.
The same measure for `CCn1nc(C(F)(F)F)nc1-c1ccc(Nc2cn(-c3c(F)cccc3Cl)nc2C(N)=O)cc1` [compound 289, 1-(2-chloro-6-fluorophenyl)-4-((4-(1-ethyl-3-(trifluoromethyl)-1H-1,2,4-triazol-5-yl)phenyl)amino)-1H-pyrazole-3-carboxamide]: 100 to 1000 nM; for `Cc1cc(C(F)(F)F)nn1-c1ccc(Nc2cn(-c3c(Cl)cccc3Cl)nc2C(N)=O)cc1` [compound 257, 1-(2,6-dichlorophenyl)-4-((4-(5-methyl-3-(trifluoromethyl)-1H-pyrazol-1-yl)phenyl)amino)-1H-pyrazole-3-carboxamide]: 100 to 1000 nM; for `CCc1nc(C(F)(F)F)nn1-c1ccc(Nc2cn(-c3c(Cl)cccc3Cl)nc2C(N)=O)cn1` [compound 329, 1-(2,6-dichlorophenyl)-4-((6-(5-ethyl-3-(trifluoromethyl)-1H-1,2,4-triazol-1-yl)pyridin-3-yl)amino)-1H-pyrazole-3-carboxamide]: 100 to 1000 nM.
The same measure for `Cc1cccc2[nH]nc(-c3ccc(Nc4cn(-c5c(Cl)cccc5Cl)nc4C(N)=O)cn3)c12` [compound 427, 1-(2,6-dichlorophenyl)-4-((6-(4-methyl-3H-indazol-3-ylidene)-1,6-dihydropyridin-3-yl)amino)-1H-pyrazole-3-carboxamide]: 100 to 1000 nM; for `CCNC(=O)c1ccc(Nc2cn(-c3c(F)cccc3F)nc2C(N)=O)cn1` [compound 24, 5-((3-carbamoyl-1-(2,6-difluorophenyl)-1H-pyrazol-4-yl)amino)-N-ethylpicolinamide]: 100 to 1000 nM.
The same measure for `CC(C)n1nc(C(F)(F)F)nc1-c1ccc(Nc2cn(-c3c(Cl)cccc3Cl)nc2C(N)=O)cc1` [compound 280, 1-(2,6-dichlorophenyl)-4-((4-(1-isopropyl-3-(trifluoromethyl)-1H-1,2,4-triazol-5-yl)phenyl)amino)-1H-pyrazole-3-carboxamide]: 100 to 1000 nM; for `CCCn1cc(C(F)(F)F)nc1-c1ccc(Nc2cn(-c3c(Cl)cccc3Cl)nc2C(N)=O)cc1` [compound 311, 1-(2,6-dichlorophenyl)-4-((4-(1-propyl-4-(trifluoromethyl)-1H-imidazol-2-yl)phenyl)amino)-1H-pyrazole-3-carboxamide]: 100 to 1000 nM; for `CCc1ncnn1-c1ccc(Nc2cn(-c3c(Cl)cccc3Cl)nc2C(N)=O)cn1` [compound 343, 1-(2,6-dichlorophenyl)-4-((6-(5-ethyl-1H-1,2,4-triazol-1-yl)pyridin-3-yl)amino)-1H-pyrazole-3-carboxamide]: 100 to 1000 nM.
Consider `Cc1cccc2nnc(-c3ccc(Nc4cn(-c5c(Cl)cc(F)cc5Cl)nc4C(N)=O)cn3)n12` [compound 477, 1-(2,6-dichloro-4-fluorophenyl)-4-((6-(5-methyl-[1,2,4]triazolo[4,3-a]pyridin-3-yl)pyridin-3-yl)amino)-1H-pyrazole-3-carboxamide], for which the IC50 is 10 to 100 nM.
The same measure for `Cn1nnc(-c2ccc(Nc3cn(-c4c(Cl)cccc4Cl)nc3C(N)=O)nc2)n1` [compound 434, 1-(2,6-dichlorophenyl)-4-((5-(2-methyl-2H-tetrazol-5-yl)pyridin-2-yl)amino)-1H-pyrazole-3-carboxamide]: 100 to 1000 nM.
`NC(=O)c1nn(-c2c(Cl)cccc2Cl)cc1Nc1ccccc1` [compound 21, 1-(2,6-dichlorophenyl)-4-(phenylamino)-1H-pyrazole-3-carboxamide]: the concentration for half-maximal inhibition (IC50) is 100 to 1000 nM.
The same measure for `CCOc1cccc(Cl)c1-n1cc(Nc2cnn(C)c2)c(C(N)=O)n1` [compound 372, 1-(2-chloro-6-ethoxyphenyl)-4-((1-methyl-1H-pyrazol-4-yl)amino)-1H-pyrazole-3-carboxamide]: 100 to 1000 nM; for `NC(=O)c1nn(-c2c(Cl)cccc2Cl)cc1Nc1ccc(C(=O)N2CC(F)(F)C(F)(F)C2)cn1` [compound 369, 1-(2,6-dichlorophenyl)-4-((5-(3,3,4,4-tetrafluoropyrrolidine-1-carbonyl)pyridin-2-yl)amino)-1H-pyrazole-3-carboxamide]: 100 to 1000 nM; for `Cc1cc(Nc2cn(-c3ccccc3F)nc2C(N)=O)ncn1` [compound 5, 1-(2-fluorophenyl)-4-((6-methylpyrimidin-4-yl)amino)-1H-pyrazole-3-carboxamide]: 100 to 1000 nM.
The same measure for `NC(=O)c1nn(-c2c(Cl)cccc2Cl)cc1Nc1ccc(C(=O)N2CC[C@H](N)C2)cn1` [compound 368, (S)-4-((5-(3-aminopyrrolidine-1-carbonyl)pyridin-2-yl)amino)-1-(2,6-dichlorophenyl)-1H-pyrazole-3-carboxamide]: 100 to 1000 nM.
The same measure for `CCn1nc(C(F)(F)F)nc1-c1ccc(Nc2cn(-c3c(Cl)cccc3Cl)nc2C(N)=O)cc1` [compound 278, 1-(2,6-dichlorophenyl)-4-((4-(1-ethyl-3-(trifluoromethyl)-1H-1,2,4-triazol-5-yl)phenyl)amino)-1H-pyrazole-3-carboxamide]: 100 to 1000 nM; for `NC(=O)c1nn(-c2c(Cl)cccc2Cl)cc1Nc1ccc(-n2c(=O)sc3ccccc32)cc1` [compound 201, 1-(2,6-dichlorophenyl)-4-((4-(2-oxobenzo[d]thiazol-3(2H)-yl)phenyl)amino)-1H-pyrazole-3-carboxamide]: 100 to 1000 nM.
On to `CCNC(=O)c1ccc(Nc2cn(-c3c(F)cccc3OC)nc2C(N)=O)cn1` [compound 25, 5-((3-carbamoyl-1-(2-fluoro-6-methoxyphenyl)-1H-pyrazol-4-yl)amino)-N-ethylpicolinamide], for which the IC50 is 100 to 1000 nM.
With `NC(=O)c1nn(-c2c(Cl)cccc2Cl)cc1Nc1ccc(-n2cncn2)nc1` [compound 337, 4-((6-(1H-1,2,4-triazol-1-yl)pyridin-3-yl)amino)-1-(2,6-dichlorophenyl)-1H-pyrazole-3-carboxamide], the IC50 was 100 to 1000 nM.
As for `NC(=O)c1nn(-c2c(Cl)cccc2Cl)cc1Nc1ccc(N2CCCC2=O)nc1` [compound 345, 1-(2,6-dichlorophenyl)-4-((6-(2-oxopyrrolidin-1-yl)pyridin-3-yl)amino)-1H-pyrazole-3-carboxamide], the IC50 lay within 100 to 1000 nM.
The same measure for `COCc1nc(C(F)(F)F)nn1-c1ccc(Nc2cn(-c3c(Cl)cccc3Cl)nc2C(N)=O)cn1` [compound 328, 1-(2,6-dichlorophenyl)-4-((6-(5-(methoxymethyl)-3-(trifluoromethyl)-1H-1,2,4-triazol-1-yl)pyridin-3-yl)amino)-1H-pyrazole-3-carboxamide]: 100 to 1000 nM.
The same measure for `CC1(C)CN(C(=O)c2ccc(Nc3cn(-c4c(Cl)cccc4Cl)nc3C(N)=O)nc2)C1` [compound 465, 1-(2,6-dichlorophenyl)-4-((5-(3,3-dimethylazetidine-1-carbonyl)pyridin-2-yl)amino)-1H-pyrazole-3-carboxamide]: 100 to 1000 nM; for `CCn1cc(C(F)(F)F)nc1-c1ccc(Nc2cn(-c3c(Cl)cccc3Cl)nc2C(N)=O)cn1` [compound 339, 1-(2,6-dichlorophenyl)-4-((6-(1-ethyl-4-(trifluoromethyl)-1H-imidazol-2-yl)pyridin-3-yl)amino)-1H-pyrazole-3-carboxamide]: 100 to 1000 nM; for `CC(C)c1nc(C(F)(F)F)nn1-c1ccc(Nc2cn(-c3c(Cl)cccc3Cl)nc2C(N)=O)cc1` [compound 274, 1-(2,6-dichlorophenyl)-4-((4-(5-isopropyl-3-(trifluoromethyl)-1H-1,2,4-triazol-1-yl)phenyl)amino)-1H-pyrazole-3-carboxamide]: 100 to 1000 nM.
The same measure for `NC(=O)c1nn(-c2c(Cl)cccc2Cl)cc1Nc1ccc(-n2nnc3ccccc32)cc1` [compound 81, 4-((4-(1H-benzo[d][1,2,3]triazol-1-yl)phenyl)amino)-1-(2,6-dichlorophenyl)-1H-pyrazole-3-carboxamide]: 100 to 1000 nM.
